One assay addresses T1, human CXCR3 (N-delta 4) (Homo sapiens, UniProt P49682).
T1 construct: CD8 leader (N); Flag tag (N); expressed in transfected cells; host or cells: mouse pro-B Ba/F3 cells, stably transfected with pME18Sneo-hCXCR3 (N-delta 4); membrane preparation
T1 sequence (P49682 5-368 limits assumed): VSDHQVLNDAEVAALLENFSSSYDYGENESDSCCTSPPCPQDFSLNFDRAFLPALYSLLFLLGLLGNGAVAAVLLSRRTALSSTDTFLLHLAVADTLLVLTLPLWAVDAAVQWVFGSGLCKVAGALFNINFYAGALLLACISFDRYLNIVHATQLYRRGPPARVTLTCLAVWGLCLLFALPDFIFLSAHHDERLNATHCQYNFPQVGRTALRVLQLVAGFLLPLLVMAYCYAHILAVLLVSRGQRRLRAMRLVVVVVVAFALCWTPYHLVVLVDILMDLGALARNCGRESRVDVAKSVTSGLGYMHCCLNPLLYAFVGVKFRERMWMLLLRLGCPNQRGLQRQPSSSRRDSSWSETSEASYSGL
The experiment in a line: Human CXCR3 (N-delta 4) Scintillation Proximity Assay (SPA), [125I] IP-10 binding. The settings on record: Ba/F3-hCXCR3 (N-delta 4) membranes, 25 pM [125I] IP-10; read-out: IC50 value. The text has this: The inventive compounds can readily be evaluated to determine activity at The CXCR3 receptors by known methods, such as, for example, Development of Human CXCR3 (N-delta 4) Binding Assay.
Cloning and Expression of Human CXCR3 (N-delta 4):
The DNA encoding human CXCR3 was cloned by PCR using human genomic DNA (Promega, Madison, Wis.) as a template. The PCR primers were designed based on the published sequence of human orphan receptor GPR9 (1) with incorporated restriction sites, a Kozak consensus sequence, CD8 leader and Flag tag. The PCR product was subcloned into the mammalian expression vector pME18Sneo, a derivative of the SR-alpha expression vector (designated as pME18Sneo-hCXCR3 (N-delta 4).
IL-3-dependent mouse pro-B cells Ba/F3 were transfected by electroporation in 0.4 ml Dulbecco's PBS containing 4×10^6 cells with 20 μg of pME18Sneo-hCXCR3 (N-delta 4) plasmid DNA. Cells were pulsed at 400 Volts, 100 OHMs, 960 μFd. The transfected cells were under selection with 1 mg/ml G418 (Life Technologies, Gaithersburg, Md.). G418-resistant Ba/F3 clones were screened for CXCR3 expression by specific binding of [^125I] IP-10 (NEN Life Science Products, Boston, Mass.).
Preparation of Ba/F3-hCXCR3 (N-delta 4) Membranes:
Ba/F3 cells expressing human CXCR3 (N-delta 4) were pelleted and resuspended in the lysis buffer containing 10 mM HEPES, pH 7.5 and Complete® protease inhibitors (1 tablet per 100 ml) (Boehringer Mannheim, Indianapolis, Ind.) at a cell density of 20×10^6 cells per ml. After 5 minutes incubation on ice, cells were transferred to 4639 cell disruption bomb (Parr Instrument, Moline, Ill.) and applied with 1,500 psi of nitrogen for 30 minutes on ice. Large cellular debris was removed by centrifugation at 1,000×g. Cell membrane in the supernatant was sedimented at 100,000×g. The membrane was resuspended in the lysis buffer supplemented with 10% sucrose and stored at −80° C. Total protein concentration of the membrane was determined by BCA method from Pierce (Rockford, Ill.).
Human CXCR3 (N-delta 4) Scintillation Proximity Assay (SPA):
For each assay point, 2 μg of membrane was preincubated for 1 hr with 300 μg wheat germ agglutinin (WGA) coated SPA beads (Amersham, Arlington Heights, Ill.) in the binding buffer (50 mM HEPES, 1 mM CaCl2, 5 mM MgCl2, 125 mM NaCl, 0.002% NaN3, 1.0% BSA) at room temperature. The beads were spun down, washed once, resuspended in the binding buffer and transferred to a 96-well Isoplate (Wallac, Gaithersburg, Md.). 25 pM of [^125I] IP-10 with tested compounds in a series of titration were added to start the reaction. After 3 hr reaction at room temperature, the amount of [^125I] IP-10 bound to the SPA beads was determined with a Wallac 1450 Microbeta counter.
The Ki values for the various example compounds of the present invention are given in the afore-mentioned Table 1. From these values, it would be apparent to the skilled artisan that the compounds of the invention have excellent utility CXCR3 antagonists.
For `CC[C@H]1CN(c2nc(N)c(-c3nnc(C)o3)nc2Cl)CCN1C1CCN(Cc2ccc(Cl)cc2/C(N)=N\O)CC1` [Compound 1], the concentration for half-maximal inhibition (IC50) turned out to be 0.2 nM.

Staying with this assay, now noted: IC50 rating; Ba/F3-hCXCR3 (N-delta 4) membranes, 25 pM [125I] IP-10; read-out: IC50.
For the molecule `CC[C@H]1CN(c2nc(N)c(-c3nnc(OC)o3)nc2Cl)CCN1C1CCN(C(=O)c2ccc(Cl)nc2N)CC1` [Compound 79], the IC50 is over 100 nM.
Turning to `CCc1nnc(-c2cnc(N3CCN(C4CCN(C(=O)c5ccc(Cl)cc5)CC4)[C@@H](CC)C3)c(C)n2)[nH]1` [Compound 129], the IC50 was under 25 nM.
Regarding `CCNc1nnc(-c2cnc(N3CCN(C4CCN(C(=O)c5ccc(Cl)nc5N)CC4)[C@@H](CC)C3)c(C3CC3)n2)o1` [Compound 181], the half-inhibitory concentration (IC50) lay in the range of 25 to 100 nM.
For `CC[C@H]1CN(c2nc(N)c(-c3nnc(C)o3)nc2Cl)CCN1C1CCN(Cc2ccc(Cl)cc2)CC1` [Compound 4], the IC50 was under 25 nM.
Still for that read-out and setting: in the case of `CC[C@H]1CN(c2ncc(-c3nnc(N(CC)S(=O)(=O)c4ccc(C)cc4)o3)nc2C)C(C)CN1C1CCN(C(=O)c2ccc(Cl)cc2)CC1` (stereo partly shown) [Compound 196] it was 25 to 100 nM.
Turning to `CC[C@H]1CN(c2nc(N)c(-c3nnc(CO)o3)nc2Cl)CCN1C1CCN([C@@H](CO)c2ccc(Cl)cc2)CC1` [Compound 6], the half-inhibitory concentration (IC50) is under 25 nM.
Take `CCNc1nnc(-c2cnc(N3C[C@H](CC)N(C4CCN(Cc5ccc(OC(F)(F)F)cc5)CC4)C[C@H]3C)c(C)n2)o1` [Compound 185]: the IC50 was under 25 nM.
Take `CC[C@H]1CN(c2nc(N)c(-c3nnc(NCC(N)=O)o3)nc2Cl)CCN1C1CCN(C(=O)c2ccc(Cl)nc2N)CC1` [Compound 75]: the IC50 was in the range of 25 to 100 nM.
Turning to `CC[C@H]1CN(c2ncc(-c3nnc[nH]3)nc2C)CCN1C1CCN(Cc2ccc(F)c(F)c2)CC1` [Compound 109], the IC50 is under 25 nM.
Regarding `CCNC(=O)Nc1nnc(-c2nc(Cl)c(N3CCN(C4CCN(C(=O)c5ccc(Cl)nc5N)CC4)[C@@H](CC)C3)nc2N)o1` [Compound 42], the IC50 is under 25 nM.
Still for that read-out and setting: in the case of `CCOC(=O)c1nnc(-c2nc(Cl)c(N3CCN(C4CCN(C(=O)c5ccc(Cl)cc5)CC4)[C@@H](CC)C3)nc2N)o1` [Compound 91] it was over 100 nM.
`CC[C@H]1CN(c2ncc(-c3nnc(C)o3)nc2Cl)CCN1C1CCN(C(=O)c2ccc(Cl)cc2)CC1` [Compound 32]: the half-inhibitory concentration (IC50) was under 25 nM.
The same measure, in the same setting: the result for `CC[C@H]1CN(c2nc(F)c(-c3nnc(C)o3)nc2Cl)CCN1C1CCN(C(=O)c2ccc(Cl)cc2)CC1` [Compound 54] reads under 25 nM.
As for `CC[C@H]1CN(c2nc(N)c(-c3nnc(C(=O)NC4CC4)o3)nc2Cl)CCN1C1CCN(C(=O)c2ccc(Cl)nc2N)CC1` [Compound 73], the concentration for half-maximal inhibition (IC50) lay within 25 to 100 nM.
The same measure, in the same setting: the result for `CC[C@H]1CN(c2nc(N)c(-c3nnc(C4CC4)o3)nc2Cl)CCN1C1CCN(C(=O)c2ccc(Cl)nc2N)CC1` [Compound 52] reads under 25 nM.
With `CC[C@H]1CN(c2ncc(-c3nnc[nH]3)nc2C(F)(F)F)CCN1C1CCN(C(=O)c2ccc(Cl)cc2)CC1` [Compound 154], the IC50 was under 25 nM.
In the case of `CCNc1nnc(-c2cnc(N3C[C@H](CC)N(C4CCN(Cc5ccc(Cl)cc5O)CC4)C[C@H]3C)c(C)n2)o1` [Compound 168], the IC50 is under 25 nM.
Same read-out and setting: the result for `CC[C@H]1CN(c2ncc(-c3nnc(N)o3)nc2C)[C@H](C)CN1C1CCN(Cc2ccc(Cl)cc2)CC1` [Compound 123] reads under 25 nM; that for `CC[C@H]1CN(c2nc(N)c(-c3n[nH]c(=O)o3)nc2Cl)CCN1C1CCN(Cc2ccc(Cl)cc2)CC1` [Compound 87], over 100 nM.
On to `CCOC(=O)c1nnc(-c2nc(Cl)c(N3CCN(C4CCN(C(=O)c5ccc(Cl)nc5N)CC4)[C@@H](CC)C3)nc2N)o1` [Compound 81], for which the IC50 was over 100 nM.
On to `CC[C@H]1CN(c2nc(N)c(-c3nnc(C)o3)nc2Cl)CCN1C1CCN(Cc2ccc(Cl)cc2-c2nnn[nH]2)CC1` [Compound 55], for which the IC50 is under 25 nM.
`CCNc1nnc(-c2cnc(N3C[C@H](CC)N(C4CCN(C(CO)c5ccc(F)c(F)c5)CC4)C[C@H]3C)c(C)n2)o1` (stereo partly shown) [Compound 175]: the concentration for half-maximal inhibition (IC50) was under 25 nM.
Still for that read-out and setting: in the case of `CC[C@H]1CN(c2ncc(-c3nnc(NC4(C)CC4)o3)nc2C)[C@H](C)CN1C1CCN(C(=O)c2ccc(Cl)nc2N)CC1` [Compound 186] it was under 25 nM.
Take `CC[C@H]1CN(c2nc(N)c(-c3nnc(CO)o3)nc2Cl)CCN1C1CCN(C(=O)c2ccc(Cl)nc2N)CC1` [Compound 25]: the half-maximal inhibitory concentration (IC50) is under 25 nM.
The same measure, in the same setting: in the case of `CC[C@H]1CN(c2ncc(-c3nc[nH]n3)nc2C)[C@H](C)CN1C1CCN(Cc2ccc(OC(F)(F)F)cc2)CC1` [Compound 148] it was under 25 nM; in that of `CC[C@H]1CN(c2nc(N)c(-c3nnc(C)o3)nc2Cl)CCN1C1CCN(Cc2ccc(Cl)cc2/C(N)=N\O)CC1` [Compound 1], under 25 nM.
Consider `CCNc1nnc(-c2cnc(N3CCN(C4CCN(C(=O)c5ccc(Cl)nc5N)CC4)[C@@H](CC)C3)c(C)n2)s1` [Compound 13], for which the IC50 is under 25 nM.
Regarding `CC[C@H]1CN(c2ncc(-c3nnc(C)o3)nc2F)CCN1C1CCN(C(=O)c2ccc(Cl)nc2N)CC1` [Compound 137], the IC50 was in the range of 25 to 100 nM.
Turning to `CC[C@H]1CN(c2ncc(-c3nnc(NC4(C)CC4)o3)nc2C)[C@H](C)CN1C1CCN(C(=O)c2ccc(Cl)cc2)CC1` [Compound 180], the IC50 was under 25 nM.
In the case of `CC[C@H]1CN(c2ncc(-c3nnc(C(C)C)[nH]3)nc2C)CCN1C1CCN(C(=O)c2ccc(Cl)cc2)CC1` [Compound 141], the concentration for half-maximal inhibition (IC50) fell in the range of 25 to 100 nM.
Consider `CC[C@H]1CN(c2nc(N)c(-c3nnc(C)o3)nc2Cl)CCN1C1CCN([C@@H](C(=O)OC)c2ccc(Cl)cc2)CC1` [Compound 61], for which the IC50 was under 25 nM.
On the same count and under the same terms, the result for `CC[C@H]1CN(c2ncc(-c3nnc(C)[nH]3)nc2Cl)CCN1C1CCN(C(=O)c2ccc(Cl)nc2N)CC1` [Compound 37] reads under 25 nM; that for `CCNc1nnc(-c2cnc(N3C[C@H](CC)N(C4CCN(C(=O)c5ccc(Cl)cc5)CC4)C[C@H]3C)c(Cl)n2)o1` [Compound 101], under 25 nM; that for `CC[C@H]1CN(c2ncc(-c3ncc[nH]3)nc2C)CCN1C1CCN(Cc2ccc(OC(F)(F)F)cc2)CC1` [Compound 135], under 25 nM.
Consider `CC[C@H]1CN(c2nc(N)c(-c3nnc(NCC(=O)OC)o3)nc2Cl)CCN1C1CCN(C(=O)c2ccc(Cl)nc2N)CC1` [Compound 26], for which the half-maximal inhibitory concentration (IC50) is under 25 nM.
As to `CCNc1nnc(-c2cnc(N3CCN(C4CCN(Cc5ccc(C)c(F)c5)CC4)[C@@H](CC)C3)c(C)n2)o1` [Compound 127], the IC50 is under 25 nM.
Regarding `CC[C@H]1CN(c2ncc(-c3nnc(NC)o3)nc2C)[C@H](C)CN1C1CCN(C(=O)c2ccc(Cl)cc2)CC1` [Compound 143], the half-maximal inhibitory concentration (IC50) was under 25 nM.
In the case of `CCNc1nnc(-c2cnc(N3C[C@H](CC)N(C4CCN(Cc5ccc(F)cc5)CC4)C[C@H]3C)c(C)n2)o1` [Compound 128], the IC50 was under 25 nM.
As for `CCNc1nnc(-c2cnc(N3C[C@H](CC)N(C4CCN(C(=O)c5ccc(Cl)cc5)CC4)C[C@H]3C)c(C)n2)o1` [Compound 96], the IC50 was under 25 nM.
For `CC[C@H]1CN(c2ncc(-c3nnc[nH]3)nc2C)[C@H](C)CN1C1CCN(C(=O)c2ccc(Cl)cc2)CC1` [Compound 118], the IC50 fell in the range of 25 to 100 nM.
On to `CC[C@H]1CN(c2nc(N)c(-c3nnc(C)o3)nc2Cl)CCN1C1CCN(Cc2ccc(Cl)cc2C#N)CC1` [Compound 48], for which the IC50 was under 25 nM.
For `CCNc1nnc(-c2cnc(N3CCN(C4CCN(C(=O)c5ccc(Cl)nc5N)CC4)[C@@H](CC)C3)c(Cl)n2)o1` [Compound 10], the IC50 was under 25 nM.

These data come from patent publication US7868006B2, “Heterocyclic substituted piperazines with CXCR3 antagonist activity” (Schering Corporation, priority 2005, dated 2011).
